ChEMBL document CHEMBL1201862, “PubChem BioAssay data set” (2004)
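Results reflect a 48-hour exposure of cells in 96-well plates to compound at five concentrations. GI50: concentration for 50% inhibition of growth.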 The source made the active and inactive calls. Cut-off read from the data, not from the text of the source: active = GI50 up to about 1.1 µM and inactive = higher.

What was measured:
Experiment in all cases: growth of human tumour cells (NCI), 48 h
NCI-H522 = tested on: NCI-H522
HCT-15 = tested on: HCT-15
HOP-92 = tested on: HOP-92
MDA-MB-231 = tested on: MDA-MB-231
SK-MEL-2 = tested on: SK-MEL-2
COLO 205 = tested on: COLO 205
SK-OV-3 = tested on: SK-OV-3
CCRF-CEM = tested on: CCRF-CEM
M14 = tested on: M14
MDA-N = tested on: MDA-N
KM12 = tested on: KM12
PC-3 = tested on: PC-3
T47D = tested on: T47D
A549 = tested on: A549
RXF 393 = tested on: RXF 393
NCI/ADR-RES = tested on: NCI/ADR-RES
HCT-116 = tested on: HCT-116
CAKI-1 = tested on: CAKI-1
NCI-H460 = tested on: NCI-H460
HCC 2998 = tested on: HCC 2998
NCI-H23 = tested on: NCI-H23
Malme-3M = tested on: Malme-3M
SR = tested on: SR
HOP-62 = tested on: HOP-62
UACC-62 = tested on: UACC-62
SF-295 = tested on: SF-295
UACC-257 = tested on: UACC-257
K562 = tested on: K562
IGROV-1 = tested on: IGROV-1
A498 = tested on: A498
U-251 = tested on: U-251
DU-145 = tested on: DU-145
OVCAR-8 = tested on: OVCAR-8
MCF7 = tested on: MCF7
SK-MEL-5 = tested on: SK-MEL-5
OVCAR-4 = tested on: OVCAR-4
HT-29 = tested on: HT-29
RPMI-8226 = tested on: RPMI-8226
Hs-578T = tested on: Hs-578T
ACHN = tested on: ACHN
MDA-MB-435 = tested on: MDA-MB-435
MOLT-4 = tested on: MOLT-4
OVCAR-3 = tested on: OVCAR-3
786-0 = tested on: 786-0
SK-MEL-28 = tested on: SK-MEL-28
EKVX = tested on: EKVX
SW-620 = tested on: SW-620
OVCAR-5 = tested on: OVCAR-5
UO-31 = tested on: UO-31
SNB-19 = tested on: SNB-19
TK-10 = tested on: TK-10
SNB-75 = tested on: SNB-75
SF-539 = tested on: SF-539
SN12C = tested on: SN12C
BT-549 = tested on: BT-549

Measured: GI50

CN/C(=N\n1cnnc1)OC
> 100 µM: HCT-15
inactive: NCI-H522 > 100 µM | HOP-92 > 100 µM | MDA-MB-231 > 100 µM | SK-MEL-2 > 100 µM | COLO 205 > 100 µM | SK-OV-3 > 100 µM | CCRF-CEM > 100 µM | M14 > 100 µM | MDA-N > 100 µM | KM12 > 100 µM | PC-3 > 100 µM | T47D > 100 µM | A549 > 100 µM | RXF 393 > 100 µM | NCI/ADR-RES > 100 µM | HCT-116 > 100 µM | CAKI-1 > 100 µM | NCI-H460 > 100 µM | HCC 2998 > 100 µM | NCI-H23 > 100 µM | Malme-3M > 100 µM | SR > 100 µM | HOP-62 > 100 µM | UACC-62 > 100 µM | SF-295 > 100 µM | UACC-257 > 100 µM | K562 > 100 µM | IGROV-1 > 100 µM | A498 > 100 µM | U-251 > 100 µM | DU-145 > 100 µM | OVCAR-8 > 100 µM | MCF7 > 100 µM | SK-MEL-5 > 100 µM | OVCAR-4 > 100 µM | HT-29 > 100 µM | RPMI-8226 > 100 µM | Hs-578T > 100 µM | ACHN > 100 µM | MDA-MB-435 > 100 µM | MOLT-4 > 100 µM | OVCAR-3 > 100 µM | 786-0 > 100 µM | SK-MEL-28 > 100 µM | EKVX > 100 µM | SW-620 > 100 µM | OVCAR-5 > 100 µM | UO-31 > 100 µM | SNB-19 > 100 µM

COc1cccc(-c2cc(O)c3cc(N)ccc3n2)c1
3.47 µM: HCT-15
inactive: NCI-H522 2.39 µM | HOP-92 3.44 µM | MDA-MB-231 25.2 µM | TK-10 6.79 µM | COLO 205 4.27 µM | SK-OV-3 2.3 µM | CCRF-CEM 2.25 µM | M14 4.63 µM | KM12 3.62 µM | PC-3 2.09 µM | A549 5.94 µM | NCI/ADR-RES 2.54 µM | NCI-H460 3.75 µM | HCC 2998 6.55 µM | NCI-H23 9.91 µM | Malme-3M 2.14 µM | HOP-62 5.92 µM | UACC-62 2.92 µM | IGROV-1 5.06 µM | OVCAR-8 9.16 µM | MCF7 3.94 µM | SK-MEL-5 2.88 µM | HT-29 3.22 µM | Hs-578T 2.09 µM | SNB-75 2.75 µM | ACHN 7.13 µM | MOLT-4 3.71 µM | 786-0 4.05 µM | SK-MEL-28 7.62 µM | SF-539 2.35 µM | EKVX > 100 µM | SW-620 1.94 µM | OVCAR-5 > 100 µM | SN12C 7.05 µM | BT-549 5.81 µM | SNB-19 5.26 µM
active: MDA-MB-435 0.834 µM
